Drawing on ChEMBL document CHEMBL1147566, “Novel halogenated nitrobenzylthioinosine analogs as es nucleoside transporter inhibitors” (Bioorg Med Chem Lett, 2004), this text covers Ki for 12 compounds.

The experiment addresses T1, Equilibrative nucleoside transporter 1 (Homo sapiens, UniProt Q99808).
T1 sequence (Q99808 whole entry): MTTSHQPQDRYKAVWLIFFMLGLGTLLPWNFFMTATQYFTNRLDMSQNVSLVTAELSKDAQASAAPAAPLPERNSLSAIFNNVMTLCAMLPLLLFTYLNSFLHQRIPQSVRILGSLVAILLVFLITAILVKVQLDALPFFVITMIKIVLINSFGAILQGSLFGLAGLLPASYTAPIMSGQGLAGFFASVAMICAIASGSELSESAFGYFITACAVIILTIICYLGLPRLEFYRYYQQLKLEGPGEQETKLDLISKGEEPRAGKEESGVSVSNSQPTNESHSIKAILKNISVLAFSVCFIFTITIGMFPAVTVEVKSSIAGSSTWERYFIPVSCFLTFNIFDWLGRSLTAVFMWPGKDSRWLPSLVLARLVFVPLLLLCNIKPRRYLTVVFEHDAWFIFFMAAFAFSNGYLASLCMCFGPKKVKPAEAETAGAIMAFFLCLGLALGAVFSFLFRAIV
In words: Displacement of 5-(SAENTA)-X8-fluorescein from K562 cell nucleoside transporter. Format: cell-based.
One may read the Ki as a measure of affinity in units of concentration, obtained from inhibition or displacement. In the case of `OC[C@H]1O[C@@H](n2cnc3c(SCc4ccc(I)cc4)ncnc32)[C@H](O)[C@@H]1O`, the affinity corresponds to a Ki of 3.88 nM. `OC[C@H]1O[C@@H](n2cnc3c(SCc4ccc(F)cc4)ncnc32)[C@H](O)[C@@H]1O` came in with a Ki of 9.02 nM. Compared with the last compound, the Ki is about 2.3-fold higher. In the case of `OC[C@H]1O[C@@H](n2cnc3c(SCc4cccc(I)c4)ncnc32)[C@H](O)[C@@H]1O`, the affinity corresponds to a Ki of 13.8 nM. Compared with the last compound, the Ki is about 1.5-fold higher.

`OC[C@H]1O[C@@H](n2cnc3c(SCc4cccc(F)c4)ncnc32)[C@H](O)[C@@H]1O` displayed a Ki of 11.2 nM. The Ki values of the last two compounds are within 1.5-fold of each other. `OC[C@H]1O[C@@H](n2cnc3c(SCc4ccc(Cl)cc4)ncnc32)[C@H](O)[C@@H]1O` had a Ki of 14.2 nM.

In turn, `OC[C@H]1O[C@@H](n2cnc3c(SCc4ccccc4F)ncnc32)[C@H](O)[C@@H]1O` returned a Ki of 19.9 nM. Turning to `OC[C@H]1O[C@@H](n2cnc3c(SCc4ccccc4Br)ncnc32)[C@H](O)[C@@H]1O`, the Ki stood at 134 nM. This Ki is about 6.7-fold higher than that of the compound before.

Regarding `OC[C@H]1O[C@@H](n2cnc3c(SCc4cccc(Br)c4)ncnc32)[C@H](O)[C@@H]1O`, the Ki came out at 20.5 nM. As for `OC[C@H]1O[C@@H](n2cnc3c(SCc4cccc(Cl)c4)ncnc32)[C@H](O)[C@@H]1O`, the figure is 16 nM; as for `OC[C@H]1O[C@@H](n2cnc3c(SCc4ccc(Br)cc4)ncnc32)[C@H](O)[C@@H]1O`, 9.98 nM; as for `OC[C@H]1O[C@@H](n2cnc3c(SCc4ccccc4Cl)ncnc32)[C@H](O)[C@@H]1O`, 99.5 nM. With `OC[C@H]1O[C@@H](n2cnc3c(SCc4ccccc4I)ncnc32)[C@H](O)[C@@H]1O`, the Ki is 16.1 nM. This Ki lies about 6.2-fold lower than the previous one.
